Results as given in patent publication US10947271B2, “Antibacterial agents” (THE UNIVERSITY OF QUEENSLAND, priority 2014, dated 2021).

What was measured:
[1] = test system: Streptococcus pneumoniae MDR ATCC 700677; test: MIC assay, S. pneumoniae MDR ATCC 700677; assay type: cell-based; conditions: 24 h incubation, visual reading
How it was run: (§1)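 MHB broth microdilution, twofold series, compounds 8–0.003 μg/ml; mid-log inoculum 5×10e5 CFU/mL; 37° C, 24 h; MIC read visually as lowest concentration without growth.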

MRSA (Strain ATCC 43300) = test: Murine thigh infection model (MRSA); assay type: in vivo, Staphylococcus aureus; conditions: neutropenic CD1 mice
Procedure: Summary: Adult (8 week old) female CD1 mice were made neutropenic by two injections of cyclophosphamide 4 days and 1 day prior to infection. An inoculum of 10^5 cfu MRSA (Strain ATCC 43300) was injected intramuscularly into both left and right thighs of all mice. […] After an additional two hours, a 50 μL sample of blood was obtained from the tail bleed to analyse for presence of antibiotic compound. […] Thighs were then removed, weighed and homogenised in a fixed volume of saline. The homogenate solution was filtered, diluted and seeded onto agar plates, which were incubated overnight at 37° C. Colony counts were used to establish the cfu in the thigh homogenates, the cfu/thigh, and the cfu/g of thigh.
Compound preparation: Cyclophosphamide monohydrate (Sigma) was dissolved in sterile saline to a concentration of 30 mg/mL. Likewise, vancomycin (Sigma) and MCC compounds were also dissolved in sterile saline to a final concentration of 60 mg/mL and 18.5 mg/mL respectively. All compounds were prepared in low binding Eppendorf tubes and kept at −20° C. until used.
In vivo experimental assay: Eight week old female outbred CD1 mice (UQBR-AIBN) were rendered neutropenic by injecting two doses of cyclophosphamide intraperitoneally 4 days (150 mg/kg) and 1 day (100 mg/kg) prior to experimental infection. The infection model using MRSA was established by intramuscular injection of 50 μL of early-log-phase bacterial MRSA suspension (around 2×10^6 cfu/mL) in saline into both thigh muscles. […] Untreated animals received equivalent volume of saline (Baxter). The mice were monitored for signs of normal behaviour (i.e. grooming, eating, drinking, sleeping, and alertness) during and following dosing. Two hours after saline/antibiotic treatment, 0.05 mL of blood was collected by tail incision. 24 hours after MRSA infection, mice were euthanized and blood collected from the heart by cardiac puncture (saline group) or by tail incision (Vancomycin and MCC compound treated groups) as outlined in FIG. 1. For each mouse, both thighs were collected aseptically by cutting the leg at the hip and knee, placed in 10 mL of cold sterile saline and the individual weight of each thigh recorded.
Preparation of injectable MRSA solution: An MRSA subculture bacterial isolate (ATCC43300) was taken from the storage at −80° C. and freshly seeded on agar plates for overnight (O/N) growth. From the O/N culture preparation, a single colony was diluted into 10-12 mL of Mueller Hinton broth (MHB) and incubated O/N at 37° C. A log-phase subculture was obtained by adding 100 μL of O/N subculture in 10 mL MHB and incubated for a further 2-3 hours. Finally, the OD600 value of the bacterial suspension was determined and the colony forming units per millilitre (cfu/mL) extrapolated. A full dilution of the bacterial cell suspension in saline was achieved by washing (3220×g for 10 min) and the OD600 in saline determined. The suspension was then diluted out accordingly in order to achieve a 2×10^6 cfu/mL solution (10^5 cfu in 50 μL/thigh).
Thus, 10 μL of the injectable MRSA suspension was diluted down to 10-1000 fold, each dilution plated out onto agar plates and incubated at 37° C. for 24 hours.
Thigh homogenates and CFU determination: Thighs were homogenized at 20,000 rpm for 15 seconds using a Polytron MR2500E using a […] probe (all Kinematica).

[2] = test system: Enterococcus faecium MDR Van A ATCC 51559; test: MIC assay, E. faecium MDR Van A ATCC 51559; assay type: cell-based; conditions: 24 h incubation, visual reading
How it was run: as §1

[3] = test system: Staphylococcus aureus MRSA ATCC 43300; test: MIC assay, S. aureus MRSA ATCC 43300; assay type: cell-based; conditions: 24 h incubation, visual reading
How it was run: as §1

[4] = single subcutaneous dose 10 mg/kg

| SMILES | Minimum Inhibitory Concentration (MIC) S. pneumoniae ATCC 700677 [1] | Average Reduction log Δcfu MRSA/thigh after 26 h (MRSA (Strain ATCC 43300); [4]) | Minimum Inhibitory Concentration (MIC) E. faecium ATCC51559 [2] | Minimum Inhibitory Concentration (MIC) Staph. aureus ATCC43300 [3] | Average Reduction log Δcfu MRSA/thigh after 26 h (MRSA (Strain ATCC 43300); single subcutaneous dose 50 mg/kg) | Average Reduction log Δcfu MRSA/thigh after 26 h (MRSA (Strain ATCC 43300); single subcutaneous dose 25 mg/kg) |
| --- | --- | --- | --- | --- | --- | --- |
| CCCCCCCCCC(=O)N[C@@H](CCCCN)C(=O)NCCNC(=O)[C@H]1NC(=O)[C@H]2NC(=O)[C@H](NC(=O)[C@@H]3NC(=O)[C@H](CC(N)=O)NC(=O)[C@H](NC(=O)[C@@H](CC(C)C)NC)[C@H](O)c4ccc(c(Cl)c4)Oc4cc3cc(c4O[C@@H]3O[C@H](CO)[C@@H](O)[C@H](O)[C@H]3O[C@H]3C[C@](C)(N)[C@H](O)[C@H](C)O3)Oc3ccc(cc3Cl)[C@H]2O)c2ccc(O)c(c2)-c2c(O)cc(O)cc21 [MCC_005162] | xxxx (xxxx = 0.01-<0.1) | xxx (xxx = 4-6) | xx (xx = 1-4) | xxxx (xxxx = 0.01-<0.1) |  |  |
| CCCCCCCCCC(=O)N[C@@H](CCCNC(=N)N)C(=O)NCCCNC(=O)[C@H]1NC(=O)[C@H]2NC(=O)[C@H](NC(=O)[C@@H]3NC(=O)[C@H](CC(N)=O)NC(=O)[C@H](NC(=O)[C@@H](CC(C)C)NC)[C@H](O)c4ccc(c(Cl)c4)Oc4cc3cc(c4O[C@@H]3O[C@H](CO)[C@@H](O)[C@H](O)[C@H]3O[C@H]3C[C@](C)(N)[C@H](O)[C@H](C)O3)Oc3ccc(cc3Cl)[C@H]2O)c2ccc(O)c(c2)-c2c(O)cc(O)cc21 [MCC_005481] | xxxx (xxxx = 0.01-<0.1) | xxx (xxx = 4-6) | x (x = >4) | xxxxx (xxxxx = <0.01) |  |  |
| CCCCCCCCC(=O)N[C@@H](CCCCN)C(=O)NCCCNC(=O)[C@H]1NC(=O)[C@H]2NC(=O)[C@H](NC(=O)[C@@H]3NC(=O)[C@H](CC(N)=O)NC(=O)[C@H](NC(=O)[C@@H](CC(C)C)NC)[C@H](O)c4ccc(c(Cl)c4)Oc4cc3cc(c4O[C@@H]3O[C@H](CO)[C@@H](O)[C@H](O)[C@H]3O[C@H]3C[C@](C)(N)[C@H](O)[C@H](C)O3)Oc3ccc(cc3Cl)[C@H]2O)c2ccc(O)c(c2)-c2c(O)cc(O)cc21 [MCC_005203] |  | xxx (xxx = 4-6) |  |  |  |  |
| CCCCCCCCCC(=O)N[C@@H](Cc1c[nH]c2ccccc12)C(=O)N[C@H](CC(N)=O)C(=O)N[C@@H](CC(=O)O)C(=O)N[C@@H]1C(=O)NCC(=O)N[C@@H](CCCN)C(=O)N[C@@H](CC(=O)O)C(=O)N[C@H](C)C(=O)N[C@@H](CC(=O)O)C(=O)NCC(=O)N[C@H](CO)C(=O)N[C@@H]([C@H](C)CC(=O)O)C(=O)N[C@@H](CC(=O)c2ccccc2N)C(=O)O[C@@H]1C [Daptomycin, reference compound] |  |  |  |  | xxx (xxx = 4-6) |  |
| CCCCCCCCCC(=O)N[C@@H](CCCCN)C(=O)N[C@@H](CCCCN)C(=O)N1CCC(CNC(=O)[C@H]2NC(=O)[C@H]3NC(=O)[C@H](NC(=O)[C@@H]4NC(=O)[C@H](CC(N)=O)NC(=O)[C@H](NC(=O)[C@@H](CC(C)C)NC)[C@H](O)c5ccc(c(Cl)c5)Oc5cc4cc(c5O[C@@H]4O[C@H](CO)[C@@H](O)[C@H](O)[C@H]4O[C@H]4C[C@](C)(N)[C@H](O)[C@H](C)O4)Oc4ccc(cc4Cl)[C@H]3O)c3ccc(O)c(c3)-c3c(O)cc(O)cc32)CC1 [MCC_005489] | xxxx (xxxx = 0.01-<0.1) | xxx (xxx = 4-6) | xx (xx = 1-4) | xxxx (xxxx = 0.01-<0.1) |  |  |
| CCCCCCCCCC(=O)N[C@@H](CCCCN)C(=O)N[C@@H](CCCCN)C(=O)NCCNC(=O)[C@H]1NC(=O)[C@H]2NC(=O)[C@H](NC(=O)[C@@H]3NC(=O)[C@H](CC(N)=O)NC(=O)[C@H](NC(=O)[C@@H](CC(C)C)NC)[C@H](O)c4ccc(c(Cl)c4)Oc4cc3cc(c4O[C@@H]3O[C@H](CO)[C@@H](O)[C@H](O)[C@H]3O[C@H]3C[C@](C)(N)[C@H](O)[C@H](C)O3)Oc3ccc(cc3Cl)[C@H]2O)c2ccc(O)c(c2)-c2c(O)cc(O)cc21 [MCC_005166] | xxxx (xxxx = 0.01-<0.1) | xxx (xxx = 4-6) | x (x = >4) | xxxx (xxxx = 0.01-<0.1) |  |  |
| CCCCCCCC(=O)N[C@@H](CCCCN)C(=O)NCCCNC(=O)[C@H]1NC(=O)[C@H]2NC(=O)[C@H](NC(=O)[C@@H]3NC(=O)[C@H](CC(N)=O)NC(=O)[C@H](NC(=O)[C@@H](CC(C)C)NC)[C@H](O)c4ccc(c(Cl)c4)Oc4cc3cc(c4O[C@@H]3O[C@H](CO)[C@@H](O)[C@H](O)[C@H]3O[C@H]3C[C@](C)(N)[C@H](O)[C@H](C)O3)Oc3ccc(cc3Cl)[C@H]2O)c2ccc(O)c(c2)-c2c(O)cc(O)cc21 [MCC_005202] | xxx (xxx = 0.1-<1) | xx (xx = 2-4) | x (x = >4) | xxx (xxx = 0.1-<1) |  |  |
| CCCCCCCCCC(=O)N[C@@H](CCCCN)C(=O)N[C@@H](CCCCN)C(=O)N[C@@H](CCCCN)C(=O)NCCNC(=O)[C@H]1NC(=O)[C@H]2NC(=O)[C@H](NC(=O)[C@@H]3NC(=O)[C@H](CC(N)=O)NC(=O)[C@H](NC(=O)[C@@H](CC(C)C)NC)[C@H](O)c4ccc(c(Cl)c4)Oc4cc3cc(c4O[C@@H]3O[C@H](CO)[C@@H](O)[C@H](O)[C@H]3O[C@H]3C[C@](C)(N)[C@H](O)[C@H](C)O3)Oc3ccc(cc3Cl)[C@H]2O)c2ccc(O)c(c2)-c2c(O)cc(O)cc21 [MCC_005181] | xxxx (xxxx = 0.01-<0.1) | xx (xx = 2-4) | xx (xx = 1-4) | xxxxx (xxxxx = <0.01) |  |  |
| CCCCCCCCC(=O)NC(CCCNC(=N)N)C(=O)NCCCNC(=O)C1NC(=O)C2NC(=O)C(NC(=O)C3NC(=O)C(CC(N)=O)NC(=O)C(NC(=O)C(CC(C)C)NC)C(O)c4ccc(c(Cl)c4)Oc4cc3cc(c4OC3OC(CO)C(O)C(O)C3OC3CC(C)(N)C(O)C(C)O3)Oc3ccc(cc3Cl)C2O)c2ccc(O)c(c2)-c2c(O)cc(O)cc21 (centres unmarked) [MCC_007336] |  | xxxx (xxxx = >6) |  |  |  |  |
| CNC(=O)[C@H](CCCCNC(=O)[C@H]1NC(=O)[C@H]2NC(=O)[C@H](NC(=O)[C@@H]3NC(=O)[C@H](CC(N)=O)NC(=O)[C@H](NC(=O)[C@@H](CC(C)C)NC)[C@H](O)c4ccc(c(Cl)c4)Oc4cc3cc(c4O[C@@H]3O[C@H](CO)[C@@H](O)[C@H](O)[C@H]3O[C@H]3C[C@](C)(N)[C@H](O)[C@H](C)O3)Oc3ccc(cc3Cl)[C@H]2O)c2ccc(O)c(c2)-c2c(O)cc(O)cc21)NC(=O)[C@H](CCCCN)NC(=O)[C@H](CCCCN)NC(=O)[C@H](CCCCNC(=O)c1ccc(Oc2ccccc2)cc1)NC(=O)c1ccc(Oc2ccccc2)cc1 [MCC_000310] | xxxxx (xxxxx = <0.01) |  | xxx (xxx = 0.1-<1) | xxxxx (xxxxx = <0.01) |  | x (x = 0-2) |
| CCCCCCCCCC(=O)N[C@@H](CCCNC(=N)N)C(=O)N[C@@H](CCCCNC(=O)[C@H]1NC(=O)[C@H]2NC(=O)[C@H](NC(=O)[C@@H]3NC(=O)[C@H](CC(N)=O)NC(=O)[C@H](NC(=O)[C@@H](CC(C)C)NC)[C@H](O)c4ccc(c(Cl)c4)Oc4cc3cc(c4O[C@@H]3O[C@H](CO)[C@@H](O)[C@H](O)[C@H]3O[C@H]3C[C@](C)(N)[C@H](O)[C@H](C)O3)Oc3ccc(cc3Cl)[C@H]2O)c2ccc(O)c(c2)-c2c(O)cc(O)cc21)C(=O)O [MCC_005530] |  | xxx (xxx = 4-6) |  |  |  |  |
